From patent publication US5807852A, “Tricyclic amide and urea compounds useful for inhibition of G-protein function and for treatment of proliferative diseases” (Schering Corporation, priority 1995, dated 1998)

target: T1, farnesyl protein transferase (FPT) (Rattus norvegicus, UniProt Q02293+Q04631); assay: Inhibition of farnesyl protein transferase (FPT), in vitro enzyme assay, Ras-CVLS farnesylation; type: biochemical, rat (partially purified rat brain); details: Table 22
T1 construct: were partially purified from rat brain by ammonium sulfate fractionation; from tissue; host or cells: rat brain
Description: Two forms of val^12 -Ha-Ras protein were prepared as substrates for these enzymes, differing in their carboxy terminal sequence. One form terminated in cysteine-valine-leucine-serine (Ras-CVLS) the other in cystein-valine-leucine-leucine (Ras-CVLL). Ras-CVLS is a substrate for the famesyl protein transferase while Ras-CVLL is a substrate for geranylgeranyl protein transferase I. The cDNAs encoding these proteins were constructed so that the proteins contain an amino-terminal extension of 6 histidine residues. Both proteins were expressed in Escherichia coli and purified using metal chelate affinity chromatography. The radiolabelled isoprenyl pyrophosphate substrates, [^3 H]farnesyl pyrophosphate and [^3 H]geranylgeranyl pyrophosphate, were purchased from DuPont/New England Nuclear.
The reaction was allowed to proceed for 30 minutes at room temperature and then stopped with 0.5 ml of 4% sodium dodecyl sulfate (SDS) followed by 0.5 ml of cold 30% trichloracetic acid (TCA). Samples were allowed to sit on ice for 45 minutes and precipitated Ras protein was then collected on GF/C filter paper mats using a Brandel cell harvester. Filter mats were washed once with 6% TCA, 2% SDS and radioactivity was measured in a Wallac 1204 Betaplate BS liquid scintillation counter. Percent inhibition was calculated relative to the DMSO vehicle control.

Structure (SMILES)	IC50 [nM]
O=C(Cc1ccnc(-n2ccnc2)c1)N1CCC(C2c3ccc(Cl)cc3CCc3cc(Br)cnc32)CC1 (stereo not drawn) [Example 410-T]	1800
C[C@H](N)C(=O)N1CCC(CC(=O)N2CCN(C3c4ccc(Cl)cc4CCc4cccnc43)CC2)CC1 (stereo partly drawn) [Example 433]	2500
CN1CCN(c2cc(CC(=O)N3CCC(C4c5ccc(Cl)cc5CCc5cc(Br)cnc54)CC3)ccn2)CC1 (stereo not drawn) [Example 410-U]	5000
CS(=O)(=O)c1cc(CC(=O)N2CCC(C3c4ccc(Cl)cc4CCc4cc(Br)cnc43)CC2)ccn1 (stereo not drawn) [Example 410-W]	1160

Further molecules by falling IC50, results first:

IC50 [nM]	Structure (SMILES)
1890	CSCC[C@H](N)C(=O)N1CCC(CC(=O)N2CCN(C3c4ccc(Cl)cc4CCc4cccnc43)CC2)CC1 (stereo partly drawn) [Example 433-B]
1170	CSc1cc(CC(=O)N2CCC(C3c4ccc(Cl)cc4CCc4cc(Br)cnc43)CC2)ccn1 (stereo not drawn) [Example 410-V]
